Laboratory results published in US7495017B2, “Phosphodiesterase 4 inhibitors” (Memory Pharmaceuticals Corporation, priority 2003, dated 2009).

## COc1ccc(-c2ccn[nH]2)cc1O[C@@H]1CCOC1 [Example 1B, 3-[4-Methoxy-3-(3R)-tetrahydrofuranyloxyphenyl]-1H-pyrazole]
  melting point: 149 to 151 °C
